# Legend:
# [1] = tested on: androgen-stimulated flank organ; assay: Related experiment: androgen-stimulated flank organ in mature female and castrated immature male hamsters; assay type: in vivo; details: 5 to 25 micrograms per flank organ
# Description: As shown by Table I the diameters and the wet weights of the flank organs were reduced at a dose of 5 micrograms per flank organ per day.
# [2] = tested on: flank organ of mature male Syrian golden hamsters; assay: Topical antiandrogenic activity in mature male hamsters, both flank organs medicated (Table I); assay type: in vivo; details: mean, n=8
# Description: Each flank organ of mature male Syrian golden hamsters having a mean initial body weight of 105 g. was medicated topically with the compound of Formula I dissolved in ethanol (5 microliters) for twenty-one days. Flank organ hair was clipped three times per week to facilitate application. On the day following the last medication the hamsters were killed with an overdose of sodium pentobarbital. The flank organ parameters and the weights of seminal vesicles, adrenals and thymus glands were determined. Flank organ diameter was measured parallel to the breadth of the hamster with vernier calipers. Wet weights were obtained on flank organs excised around the periphery of the pigmented area. The topical activity of the compound of Formula I was also compared with that of 17β-hydroxy-17α-propylandrost-4-en-3-one, an antiandrogen, and hydrocortisone. In this experiment the right flank organ was treated with the test compound while vehicle-treated left flank organ served as control. […] In addition, the individual characteristics of the flank organ, elevation (thickness relative to adjacent skin), area, hair pigment, skin pigment and hair growth were all scored separately on a scale of 0 to 4.
# [3] = tested on: adrenalectomized Sprague-Dawley rats; assay: Systemic glucocorticoid activity in the adrenalectomized rat, oral; assay type: in vivo; parameters: Liver glycogen: unit not given here; details: five consecutive days; for Liver glycogen: control 1.82±0.03; for Thymus weights: control 638±50
# Description: A solution of the compound of Formula I in ethanolcottonseed oil (1:9, v/v) was administered orally to adrenalectomized Sprague-Dawley rats having a mean initial body weight of 188 g. (10 rats per group) for five consecutive days. Adrenalectomized rats receiving vehicle alone served as controls. Seven hours after the final medication the rats were killed and the thymus glands were excised and weighed. A portion of the liver was excised, frozen and digested in hot aqueous potassium hydroxide (30%). Liver glycogen was then determined. In this test the compound of Formula I caused thymolysis and liver glycogen deposition. The thymus weights at doses of 10 and 30 mg./kg. were 359±31 and 167±20 mg., respectively,in the medicated rats compared with 638±50 mg. in the control rats.
# [4] = tested on: hair on the back of mature male Syrian golden hamsters; assay: Reduction of hair regrowth on clipped back of hamsters; assay type: in vivo; details: 200 microliters on 9 cm2, 30 daily applications, vehicle 323±49 mg
# Description: The hair on the back of mature male Syrian golden hamsters having a mean initial body weight of 107 g. (7 hamsters per group) was removed with electric clippers. The vehicle (200 microliters of ethanol) or the test solution (0.02% or 0.1% of the compound of Formula I in ethanol) was pipetted slowly to cover the entire clipped area (9 cm.^2). After 30 daily applications, the hair was clipped from the same area and the hair clippings were collected and weighed in order to measure hair regrowth. The hair weights averaged 119±15 and 109±17 mg. for hamsters treated with 0.02% and 0.1% of the compound of Formula I, respectively, compared to 323±49 mg. for vehicle-treated hamsters.
# [5] = molecular target: T1, hamster flank organ cytosol receptor (Mesocricetus auratus, UniProt A0A1U7QL32); assay: Binding competition with 3H-dihydrotestosterone in hamster flank organ cytosol in vitro (Table VI); parameters: species or system Syrian golden hamsters; details: 3H-DHT 2 nM, two hours, no antagonist 13.96
# T1 construct: The homogenate was centrifuged (120,000×g for 45 min.) and the cytosol was frozen and stored at -70° C; from tissue; host or cells: flank organ cytosol of castrated male Syrian golden hamsters
# T1 sequence (A0A1U7QL32 1-900): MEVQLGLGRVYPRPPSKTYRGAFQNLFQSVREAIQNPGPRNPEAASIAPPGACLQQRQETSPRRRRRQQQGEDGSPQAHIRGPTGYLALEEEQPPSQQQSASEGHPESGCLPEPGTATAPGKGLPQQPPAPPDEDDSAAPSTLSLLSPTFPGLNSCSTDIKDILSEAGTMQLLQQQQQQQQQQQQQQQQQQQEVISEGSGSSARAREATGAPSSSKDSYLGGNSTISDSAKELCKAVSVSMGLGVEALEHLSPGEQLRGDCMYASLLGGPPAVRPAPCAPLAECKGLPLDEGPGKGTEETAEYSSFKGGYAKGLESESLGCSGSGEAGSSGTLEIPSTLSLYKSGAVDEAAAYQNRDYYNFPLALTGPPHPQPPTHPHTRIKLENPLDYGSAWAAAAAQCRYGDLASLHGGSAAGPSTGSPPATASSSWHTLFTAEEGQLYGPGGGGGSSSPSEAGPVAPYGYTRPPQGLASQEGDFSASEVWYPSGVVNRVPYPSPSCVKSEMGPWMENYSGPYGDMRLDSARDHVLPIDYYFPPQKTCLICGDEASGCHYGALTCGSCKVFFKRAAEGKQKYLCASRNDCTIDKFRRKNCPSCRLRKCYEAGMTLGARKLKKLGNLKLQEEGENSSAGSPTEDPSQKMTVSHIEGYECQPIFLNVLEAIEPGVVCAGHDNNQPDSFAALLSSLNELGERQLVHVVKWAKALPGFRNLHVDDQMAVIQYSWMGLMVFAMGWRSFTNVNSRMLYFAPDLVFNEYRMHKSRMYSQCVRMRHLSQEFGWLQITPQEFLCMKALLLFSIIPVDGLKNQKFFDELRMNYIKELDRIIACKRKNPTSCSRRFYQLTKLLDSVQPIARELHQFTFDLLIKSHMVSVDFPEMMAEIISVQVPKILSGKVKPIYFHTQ
# Description: The flank organs of twelve mature male Syrian golden hamsters each weighing from 120 to 140 g. and having been castrated 16-18 hours earlier were excised, dissected under the microscope to remove the dermis and the muscle layers and homogenized in buffer (1.5 volumes of 50 mM Tris, 0.5 mM mercaptoethanol and 0.1 mM ethylenediamine tetracetate, pH 7.4). The homogenate was centrifuged (120,000×g for 45 min.) and the cytosol was frozen and stored at -70° C. Six of the cytosol samples were thawed at room temperature, pooled and used for evaluation of in vitro binding.
# [6] = 1 μg/flank organ/day topical for 21 days
# [7] = 5 μg/flank organ/day topical for 21 days
# [8] = 25 μg/flank organ/day topical for 21 days
# [9] = 125 μg/flank organ/day topical for 21 days
smiles,measurement,setting,value
"CC#C[C@]1(O)CC[C@H]2[C@@H]3C[C@H](C)C4=Cc5[nH]ncc5C[C@]4(C)[C@H]3CC[C@@]21C [Compound of Formula I, 17β-Hydroxy-6α-methyl-17α-propynyl-4-androsteno[3,2-c]-pyrazole]",Inhibition of androgen-stimulated flank organ parameters,[1],effective inhibitor of androgen-stimulated flank organ parameters
same,Systemic effects,[1],without any systemic effects
same,Flank Organ Diameter,[2]; [6],5.7 mm
same,Flank Organ Wet Weight,[2]; [6],46.5 mg
same,Organ Weights: Adrenal,[2]; [6],26.7 mg
same,Organ Weights: Seminal Vesicles,[2]; [6],288.3 mg
same,Organ Weights: Thymus,[2]; [6],57.1 mg
same,Flank Organ Diameter,[2]; [7],4.8 mm
same,Flank Organ Wet Weight,[2]; [7],36.4 mg
same,Organ Weights: Adrenal,[2]; [7],25.5 mg
same,Organ Weights: Seminal Vesicles,[2]; [7],277.6 mg
same,Organ Weights: Thymus,[2]; [7],53.2 mg
same,Flank Organ Diameter,[2]; [8],4.7 mm
same,Flank Organ Wet Weight,[2]; [8],33.4 mg
same,Organ Weights: Adrenal,[2]; [8],25.5 mg
same,Organ Weights: Seminal Vesicles,[2]; [8],270.3 mg
same,Organ Weights: Thymus,[2]; [8],53.7 mg
same,Flank Organ Diameter,[2]; [9],4.8 mm
same,Flank Organ Wet Weight,[2]; [9],30.7 mg
same,Organ Weights: Adrenal,[2]; [9],21.0 mg
same,Organ Weights: Seminal Vesicles,[2]; [9],267.3 mg
same,Organ Weights: Thymus,[2]; [9],52.8 mg
same,Liver glycogen,[3]; 10 mg./kg. oral,5.7±1.1
same,Thymus weights,[3]; 10 mg./kg. oral,359 ± 31 mg
same,Liver glycogen,[3]; 30 mg./kg. oral,10.9±1.2
same,Thymus weights,[3]; 30 mg./kg. oral,167 ± 20 mg
same,Hair weights (hair regrowth on clipped back area),[4]; 0.02% in ethanol,119 ± 15 mg
same,Hair weights (hair regrowth on clipped back area),[4]; 0.1% in ethanol,109 ± 17 mg
same,% Bound (Mean ± SE) of 3H-dihydrotestosterone,"[5]; unlabelled antagonist 20 nM, molar ratio 10",9.94 ± .45%
same,% Bound (Mean ± SE) of 3H-dihydrotestosterone,"[5]; unlabelled antagonist 200 nM, molar ratio 100",8.55 ± .56%
same,% Bound (Mean ± SE) of 3H-dihydrotestosterone,"[5]; unlabelled antagonist 2000 nM, molar ratio 1000",6.30 ± .003%

# Reference: patent US4269831A, “Topical dermatological method of use of an androstenopyrazole” (priority 1979, dated 1981)
